Measurements published in US6984484B1, “Mammalian serine racemase” (The Johns Hopkins University, priority 1999, dated 2006).

Tests used:
serine racemase [1] = biological target: T1, serine racemase (Rattus norvegicus, UniProt Q76EQ0); assay: Inhibition of serine racemase by PLP inhibitors and sulfhydryl oxidation; PLP requirement; type: biochemical; conditions: for Effect on enzyme activity (PLP inhibitors): 37° C., pH 8.0, 20 mM L-serine, 2 mM DTT, 10 μM PLP, different concentrations (FIG. 4A)
T1 construct: the rat brain enzyme we have purified; from tissue; host or cells: rat brain (10–14 day old Sprague-Dawley rats)
T1 sequence (Q76EQ0 1-333): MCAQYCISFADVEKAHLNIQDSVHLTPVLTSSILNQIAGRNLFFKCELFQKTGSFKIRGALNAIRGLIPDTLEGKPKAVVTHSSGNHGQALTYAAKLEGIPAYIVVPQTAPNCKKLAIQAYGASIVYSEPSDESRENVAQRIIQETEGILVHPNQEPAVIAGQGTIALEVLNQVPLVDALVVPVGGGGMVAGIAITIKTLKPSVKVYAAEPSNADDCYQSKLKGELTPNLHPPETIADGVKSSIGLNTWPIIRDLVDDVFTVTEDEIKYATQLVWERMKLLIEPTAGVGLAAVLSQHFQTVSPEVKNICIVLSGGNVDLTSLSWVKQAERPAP
Experimental: FIG. 4. inhibition of serine racemase by PLP inhibitors and sulfhydryl oxidation. FIG. 4A. Enzyme activity was monitored at 37° C. in a medium containing 50 mM Tris-HCl (pH 8.0), 20 mM L-serine, 40–100 μg/ml purified enzyme, 1 mM EDTA, 2 mM DTT, 10 μM pyridoxal 5′-phosphate and different concentrations of either aminooxyacetic acid (◯) or hydroxylamine (●). FIG. 4B. Reaction medium and conditions were as described in A, except that DTT was omitted from the last step of the enzyme preparation. The enzyme was preincubated for 10 minutes in the presence of different concentrations of oxidized glutathione (GSSG).
D-serine formation was monitored by a chemiluminescent assay that specifically detects D-serine. Racemase activity was performed in the presence of 50 mM Tris-HCl (pH 8.0), 18 μl enzyme extract, 1 mM EDTA, 2 mM DTT, 15 μM pyridoxal 5′-phosphate (PLP), and 20 mM L-serine. After 0.5 to 8 hours incubation at 37° C., the reaction was terminated by the addition of trichloroacetic acid (TCA) to a final concentration of 5%. Blanks employed boiled enzyme extract. The precipitated protein was removed by centrifugation, and the supernatant was extracted 2 times with 1 ml of water-saturated diethyl ether to remove TCA. D-serine concentration was determined by incubation of the samples with D-amino acid oxidase, which specifically degrades D-amino acids, generating an α-keto acid, NH3 and hydrogen peroxide (16).
The generation of hydrogen peroxide was quantitated by the use of peroxidase and luminol, which emits light. A 10 μl sample aliquot was added to 100 μl of medium containing 100 mM Tris-HCl (pH 8.8), 10 U/ml peroxidase, and 8 μM luminol. After a 10 to 20 minute delay required to decrease the nonspecific luminol luminescence, 10 μl of D-amino acid oxidase (75 U/ml) were added, and the tubes were gently mixed with a pipette tip. Maximum luminescence was recorded after 10 to 15 minutes at room temperature using a Monolight 2010 luminometer (Analytical Luminescence Laboratory). The amount of D-serine in each sample was calculated by comparison with standard curves. The measurements were reliable in the range of 50 to 2000 pmol D-serine per sample. […] Alternatively, amino acid enantiomers were separated by high performance liquid chromatography (HPLC) using a carbon 18 reverse phase column (RP18 Spheri-5, 22 cm×4.6 mm, Perkin Elmer) with fluorimetric detection after derivatization with L-Boc-cys and OPA, as described (17). The results obtained with chemiluminescent assay were identical to those obtained using HPLC. […]
We wondered whether conversion of L to D-serine might be a by-product of a different enzyme activity with non-enzymatic racemization giving rise to D-serine. Accordingly, we monitored by HPLC levels of L and D-serine at different incubation times (Table 2). […]

serine racemase [2] = biological target: T1, serine racemase; assay: Absorption spectra of purified serine racemase; conditions: 70 μg/ml enzyme preincubated 10 minutes with 1 mM AOAA (FIG. 5)
Experimental: FIG. 5. Absorption spectra of purified serine racemase. Purified enzyme (70 μg/ml) was preincubated for 10 minutes in medium containing 10 mM KPi (pH 7.2), 2 mM DTT, 1 mM EDTA, 10 μM PLP, either in the absence (Control) or in the presence of 1 mM aminooxyacetic acid (AOAA). The distinct peaks of absorbance at 420 and 340 nm were not observed in the presence of buffer alone or when bovine serum albumin was used instead of serine racemase.
For most applications the purified protein was further concentrated using centriplus 30. Protein concentration was determined with Coomassie plus protein assay reagent (Pierce). Enzyme-bound PLP was determined at room temperature by recording the absorbance of the purified protein in the range of 500 to 280 nm using a Lambda Bio spectrophotometer (Perkin Elmer).
Examination of the absorption spectrum of the enzyme confirms the importance of PLP. […] The peak at 420 nm, corresponding to a Schiff's base complex of PLP with an active site lysine, is abolished by treatment with AOAA (FIG. 5).

[3] = biological target: NMDA receptor "glycine site" (Homo sapiens, UniProt Q05586); conditions: reference 14; cited from earlier work
serine racemase [4] = biological target: T1, serine racemase; assay: Substrate specificity of serine racemase; type: biochemical; conditions: for Specific activity / % control: 20 mM L-amino acids; for Specific activity: 37° C., pH 8.0, 8 h, HPLC; for % control: activity relative to L-serine, 8 h; for Racemase activity with the amino acid: purified enzyme
Experimental: (§1) The generation of hydrogen peroxide was quantitated by the use of peroxidase and luminol, which emits light. A 10 μl sample aliquot was added to 100 μl of medium containing 100 mM Tris-HCl (pH 8.8), 10 U/ml peroxidase, and 8 μM luminol. After a 10 to 20 minute delay required to decrease the nonspecific luminol luminescence, 10 μl of D-amino acid oxidase (75 U/ml) were added, and the tubes were gently mixed with a pipette tip. Maximum luminescence was recorded after 10 to 15 minutes at room temperature using a Monolight 2010 luminometer (Analytical Luminescence Laboratory). The amount of D-serine in each sample was calculated by comparison with standard curves. The measurements were reliable in the range of 50 to 2000 pmol D-serine per sample. […] Alternatively, amino acid enantiomers were separated by high performance liquid chromatography (HPLC) using a carbon 18 reverse phase column (RP18 Spheri-5, 22 cm×4.6 mm, Perkin Elmer) with fluorimetric detection after derivatization with L-Boc-cys and OPA, as described (17). The results obtained with chemiluminescent assay were identical to those obtained using HPLC.
The presence of trace amounts of D-serine in the commercial L-serine reagent generates high blank values. Thus, the stock solution of L-serine (100 mM) was routinely pre-treated for 3 days with 30 units of D-amino acid oxidase and 500 units of catalase to remove any D-serine contaminant. The enzymes were precipitated by the addition of 5% TCA. After removal of TCA by extraction with diethyl ether, the L-serine solution was neutralized with NaOH and could be used without further purification, being virtually free of any D-serine contaminant. The same purification procedure was applied for L-alanine and L-threonine.
Additionally, we examined the purified enzyme for the presence of other enzyme activities which might indirectly contribute to D-serine formation. We found no evidence for serine: pyruvate aminotransferase activity, as L-serine levels were not altered in the presence of pyruvate. […] There is no evidence for serine dehydratase activity which would be associated with a marked decrease in L-serine levels.

serine racemase [5] = biological target: T1, serine racemase; assay: Racemization of L-serine over time, L- and D-serine by HPLC; type: biochemical
Experimental: as §1
We wondered whether conversion of L to D-serine might be a by-product of a different enzyme activity with non-enzymatic racemization giving rise to D-serine. Accordingly, we monitored by HPLC levels of L and D-serine at different incubation times (Table 2). Increases in formation of D-serine are paralleled by stoichiometric decreases in levels of L-serine, making it unlikely that L-serine is converted to any other compound by the enzyme.

[6] = time 0, 4 mM L-serine, 40 μg/ml purified enzyme, 37° C.

NOCC(=O)O [Aminooxyacetic acid, aminooxyacetic acid]
Effect on enzyme activity (PLP inhibitors) (serine racemase [1]): inhibit enzyme activity
Absorption peak at 420 nm of the enzyme (Schiff's base complex of PLP) (serine racemase [2]): abolished

N[C@H](CO)C(=O)O [D-serine]
Potency relative to glycine at the glycine site [3]: up to three times more potent than glycine

C[C@H](N)C(=O)O [L-alanine]
Specific activity (serine racemase [4]): 0.012 µmol/mg/h

N[C@@H](CC(=O)O)C(=O)O [L-aspartate]
Specific activity (serine racemase [4]): 0 µmol/mg/h
% control (serine racemase [4]): 0%
Racemase activity with the amino acid (serine racemase [4]): no activity

N[C@@H](CO)C(=O)O [L-serine]
[D-sertne] (serine racemase [5]; [6]): 0.0007 mM
[L-serine] (serine racemase [5]; [6]): 4.00 mM
[D-sertne] (serine racemase [5]; time 0.5 h): 0.042 mM
[L-serine] (serine racemase [5]; time 0.5 h): 3.96 mM
[D-sertne] (serine racemase [5]; time 1 h): 0.101 mM
[L-serine] (serine racemase [5]; time 1 h): 3.93 mM
[D-sertne] (serine racemase [5]; time 4 h): 0.342 mM
[L-serine] (serine racemase [5]; time 4 h): 3.65 mM
Specific activity (serine racemase [4]): 4.8 µmol/mg/h
% control (serine racemase [4]): 100%

C[C@@H](O)[C@H](N)C(=O)O [L-threonine]
Specific activity (serine racemase [4]): 0 µmol/mg/h
Racemase activity with the amino acid (serine racemase [4]): no activity

Cc1ncc(COP(=O)(O)O)c(C=O)c1O [PLP, pyridoxal 5′-phosphate]
Enzyme activity after dialysis without PLP, on addition of PLP (serine racemase [1]; dialysis for 16 hours against 1,000 volumes of purification buffer without PLP): can be restored by the addition of PLP

NO [hydroxylamine]
Effect on enzyme activity (PLP inhibitors) (serine racemase [1]): inhibit enzyme activity

oxidized glutathione
Effect on enzyme activity (sulfhydryl oxidation) (serine racemase [1]; DTT omitted, enzyme preincubated for 10 minutes with different concentrations (FIG. 4B)): markedly reduces enzyme activity
